PMC5755735, “Discovery of indolylpiperazinylpyrimidines with dual-target profiles at adenosine A2A and dopamine D2 receptors for Parkinson's disease treatment” (PLoS ONE, 2018)
Like-named read-outs stand apart in the source and are kept apart here.

How the values were obtained:
[1] = molecular target: human dopamine D2 receptor (Homo sapiens, UniProt P14416); test: adenylyl cyclase inhibition (cAMP accumulation) assay in CHO cells transfected with D2 receptor; assay type: cell-based; parameters: expressed in transfected cells; host or cells: CHO cells
human dopamine D2 receptor, sequence (P14416 whole entry): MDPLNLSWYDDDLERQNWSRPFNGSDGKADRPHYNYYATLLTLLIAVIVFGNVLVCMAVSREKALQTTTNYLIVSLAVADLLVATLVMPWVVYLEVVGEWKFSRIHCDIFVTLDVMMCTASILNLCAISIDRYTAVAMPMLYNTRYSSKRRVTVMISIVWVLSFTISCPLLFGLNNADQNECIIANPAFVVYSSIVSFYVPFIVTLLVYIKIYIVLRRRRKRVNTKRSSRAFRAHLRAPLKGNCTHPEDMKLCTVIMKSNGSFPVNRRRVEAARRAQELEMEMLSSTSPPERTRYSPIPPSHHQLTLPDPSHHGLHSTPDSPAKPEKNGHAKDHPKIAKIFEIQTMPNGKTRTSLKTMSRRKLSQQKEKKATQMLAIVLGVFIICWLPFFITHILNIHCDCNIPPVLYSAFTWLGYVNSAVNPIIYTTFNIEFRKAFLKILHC
Method: CHO cells transfected with D2 receptors were cultured and then serum starved overnight. Cells were treated with various concentrations of ligands (25 μL of 10X solution), stimulated with forskolin (0.5 μM) and 3-isobutyl-1-methylxanthine (IBMX) (0.5 mM), and incubated for 15 minutes. After lysis, cAMP content was determined by ELISA.

[2] = test system: LRRK2 G2019S-expressing flies; test: LRRK2 G2019S Drosophila model of PD (climbing assay, DA neuron count); assay type: in vivo
Source text: (§1) Parkin-null (pk-/-) flies were first used to evaluate compound 5. […] (Fig 8B), the cluster used widely in the parkin-null flies. Compound 5 was subsequently examined for its ability to ameliorate LRRK2 G2019S-induced PD phenotypes. […] Taken together, these findings indicate that compound 5 acts as a suppressor of DA neuron dysfunction in two Drosophila genetic PD models—one with parkin-null which represents recessive PD, and one with transgene LRRK2 G2019S-mutant, which represents dominant PD.
(§2) Fly lines for 24B-Gal4 (muscle specific), ddc-Gal4 (dopaminergic neuron-specific), elav-Gal4 (pan-neuronal), UAS-mito-GFP, and UAS-dAMPK-KA were purchased from Bloomington Drosophila Stock Center. The parkin-null mutant flies were kind gifts from Chung J. and Cho K. S. (Korea Advanced Institute of Science and Technology, Daejeon, Korea). […] After a 2-hour recovery period from CO2 exposure, flies were gently tapped to the bottom of the column, and the number of flies that reached the top of column at 1 min was counted. […] DA neurons were quantified according to previously published method. The size of mito-GFP puncta was measured using the ImageJ program and expressed as mean ± SD (n ≥ 10 DA neurons per experimental group). Statistical significance for all the quantitative data obtained were analyzed using one-way ANOVA with Tukey’s test HSD post hoc test (*p < 0.05, **p < 0.01).

aqueous solubility = assay type: physicochemical; conditions: universal aqueous buffer, 22.5 °C, pH 7.4, aqueous buffer, kinetic from dmso stock
Method: The 10 μL stock solution of the ligand (10 mM in DMSO) was added to the universal aqueous buffer (pH 7.4), and the mixture was sonicated. 300 μL of the turbid mixture was transferred to the 3 wells of MultiScreen HTS- PCF filter plate (Millipore Corp., Ireland), and the plate was covered and incubated with gentle shaking (250 rpm, 3 h) at room temperature (22.5 ± 2.5°C). After the period of incubation (3 h), the filter plate was placed on a vacuum manifold and the contents were filtered into a 96-well UV plate. After filtration, 200 μL of filtrate was transferred from each well to the PP vial. Absorbances of the solutions were quantified by HPLC-UV and read at 250 nm.

parkin-null flies = test: parkin-null Drosophila model of PD (climbing assay, DA neuron count); assay type: in vivo; conditions: 50 μM
Source text: as §1, §2

| Compound | functional activity at D2 receptor (cAMP accumulation induced by forskolin/IBMX) ([1]; 1 μM, 10 μM and 100 μM) | inhibition of cAMP accumulation (optimal inhibition) ([1]; 100 μM, p = 0.0232) | climbing score ([2]; 50 μM and 100 μM) | DA neuronal count ([2]; LRRK2 G2019S-expressing flies) | solubility at 3 h (aqueous solubility; ambient temperature, pH 7.4, guideline of Kerns et al. [40], read-out: aqueous solubility class) [µg/mL] | solubility at 3 h (aqueous solubility; pH 7.4, 3 h, room temperature, read-out: Solubility (μM), 3 h) [µM] | solubility at 3 h (aqueous solubility; pH 7.4, 3 h, room temperature, read-out: Solubility (μg/mL), 3 h) [µg/mL] | DA neuronal count (PPL1 cluster) (parkin-null flies) | climbing score (parkin-null flies; compared with untreated mutant flies) |
| --- | --- | --- | --- | --- | --- | --- | --- | --- | --- |
| Cc1cc(C)nc(N2CCN(C(=O)Cc3c(C)[nH]c4ccccc34)CC2)n1 [Compound 6, 1‐[4‐(4,6‐Dimethylpyrimidin‐2‐yl)piperazin‐1‐yl]‐2‐(2‐methyl‐1H‐indol‐3‐yl)ethan‐1‐one] | acted as a D2 receptor agonist | comparable potency to 100 nM of quinpirole | – | – | – | – | – | – | – |
| Cc1cc(C)nc(N2CCN(C(=O)c3c[nH]c4ccccc34)CC2)n1 [Compound 5, 3‐[4‐(4,6‐Dimethylpyrimidin‐2‐yl)piperazine‐1‐carbonyl]‐1H‐indole] | – | – | improvement in climbing (in a concentration-dependent manner) | mitigation of DA neuron degeneration | < 10 | 27 ± 0.32 | 9.07 ± 0.11 | reduction of DA neuron loss in the PPL1 cluster | improvement in climbing scores |
